Drawing on PubChem BioAssay (NCI), this text covers GI50 and TGI for nine compounds.

The structures appear in SMILES notation. Where “and” joins values, the source holds several entries; their conditions need not be identical. Identical values can stand only once.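 Results reflect a 48-hour exposure of cells in 96-well plates to compound at five concentrations. The concentration for 50% growth inhibition is given as GI50. Definition used: TGI = concentration required for complete inhibition of growth.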

Among the test systems are SK-OV-3 ovarian; OVCAR-8 ovarian; U251 CNS; SNB-19 CNS; SNB-75 CNS; IGROV1 ovarian; NCI-H522 lung; NCI/ADR-RES ovarian; OVCAR-5 ovarian; A549 NSCLC.
Holding throughout (test): NCI anticancer screen, dose series, 48 h

`COc1ccc(CNC(=O)c2ccc(-c3cc(-c4nnc(C)o4)ccc3C)cc2)cc1`: the GI50 in the assay with SK-OV-3 ovarian is more than 25 µM; in the assay on OVCAR-8 ovarian, more than 25 µM; in the assay on U251 CNS, more than 25 µM; in the assay on SNB-19 CNS, more than 22.8 µM; in the assay on SNB-75 CNS it was 14.2 µM; with IGROV1 ovarian, more than 22.6 µM. For the same compound, the GI50 in the assay on NCI-H522 lung is more than 20.2 µM; with NCI/ADR-RES ovarian, 16.1 µM; in the assay on OVCAR-5 ovarian it was more than 25 µM; in the assay with A549 NSCLC, 22.8 µM. The TGI with SK-OV-3 ovarian, in the assay on OVCAR-8 ovarian, in the assay on U251 CNS, in the assay with SNB-19 CNS, in the assay on SNB-75 CNS and in the assay on IGROV1 ovarian was more than 25 µM each time. The TGI in the assay with NCI-H522 lung, in the assay with NCI/ADR-RES ovarian, with OVCAR-5 ovarian and in the assay with A549 NSCLC was more than 25 µM throughout.

Take `CCCC(=O)Nc1cn(COC)c(C(=O)N2C[C@H]3C[C@@]34C2=CC(=O)c2[nH]cc(C)c24)n1`: the GI50 with SK-OV-3 ovarian was 26.7 µM; with SNB-19 CNS, 10.4 µM; in the assay on SNB-75 CNS it was 32 µM; in the assay on IGROV1 ovarian it was 6.68 µM; with NCI-H522 lung, 1.84 µM; with NCI/ADR-RES ovarian, 12 µM. For the same compound, the GI50 with OVCAR-5 ovarian was 6.13 µM. Further, the TGI is 50 µM and > 100 µM in the assay on SK-OV-3 ovarian; 14.6 µM and 20.1 µM with OVCAR-8 ovarian; 50 µM and > 100 µM with U251 CNS; 50 µM and > 100 µM in the assay on SNB-19 CNS; 21.6 µM and > 100 µM in the assay on SNB-75 CNS; 50 µM and > 100 µM in the assay with IGROV1 ovarian. Also, the TGI in the assay with NCI-H522 lung is 8.62 µM and 14.7 µM; in the assay with NCI/ADR-RES ovarian, 15.8 µM and 43.6 µM; in the assay on OVCAR-5 ovarian, 50 µM and > 100 µM; in the assay on A549 NSCLC, 50 µM and > 100 µM.

With `CCCCCCCCCCCCCCCCCCNC(=O)[C@H]1CSC(c2ccc(F)c(OC)c2)N1` (stereo not given in full), the GI50 in the assay on SK-OV-3 ovarian was 1.92 µM; with OVCAR-8 ovarian, 0.976 µM; in the assay on U251 CNS, 0.866 µM; in the assay on SNB-19 CNS it was 0.996 µM; with SNB-75 CNS, 0.87 µM; in the assay on IGROV1 ovarian, 1.43 µM. The results for the GI50 with NCI/ADR-RES ovarian and in the assay on OVCAR-5 ovarian were 1.07 µM and 1 µM, respectively. Further, the TGI in the assay on SK-OV-3 ovarian is 11.2 µM; with OVCAR-8 ovarian, 2.7 µM; with U251 CNS it was 1.6 µM; with SNB-19 CNS, 1.96 µM; in the assay on SNB-75 CNS it was 1.63 µM; in the assay with IGROV1 ovarian, 5.05 µM. Further, the TGI with NCI/ADR-RES ovarian is 2.41 µM; with OVCAR-5 ovarian, 1.91 µM.

`Cc1ccc(S(=O)c2ccc([N+](=O)[O-])c3nonc23)cc1` (stereo not given): the GI50 was 18.8 µM in the assay with SK-OV-3 ovarian; 6.89 µM in the assay on OVCAR-8 ovarian; 16 µM in the assay with U251 CNS; 14.7 µM with SNB-19 CNS; 12.2 µM in the assay on IGROV1 ovarian; 1.57 µM in the assay on NCI-H522 lung. For the same compound, the results for the GI50 in the assay on NCI/ADR-RES ovarian, with OVCAR-5 ovarian and in the assay with A549 NSCLC were 15.8 µM, 9.5 µM and 18.7 µM, respectively. In addition, the TGI was 34.3 µM in the assay with SK-OV-3 ovarian; 22.4 µM in the assay on OVCAR-8 ovarian; 35 µM in the assay with U251 CNS; 33.9 µM in the assay with SNB-19 CNS; 27.4 µM with IGROV1 ovarian; 2.98 µM with NCI-H522 lung. The TGI with NCI/ADR-RES ovarian was determined as 48.9 µM; in the assay on OVCAR-5 ovarian it was 26.2 µM; in the assay on A549 NSCLC it was 39.5 µM.

As to `COc1cc(/C=C2/C(=O)N(C(=O)c3ccccc3O)N=C2C)ccc1O`, the TGI in the assay with SK-OV-3 ovarian was more than 86.5 µM; in the assay on OVCAR-8 ovarian it was more than 100 µM; in the assay with U251 CNS it was more than 100 µM; in the assay with SNB-19 CNS, more than 100 µM; in the assay with IGROV1 ovarian, 2.06 µM; in the assay with NCI/ADR-RES ovarian it was more than 100 µM. The TGI with OVCAR-5 ovarian and in the assay with A549 NSCLC was more than 100 µM in each case.

`NCCNc1nc2ccccc2c2c(=O)c3cc(F)cc(Cl)c3sc12`: the GI50 was 1.61 µM in the assay on OVCAR-8 ovarian; 1.22 µM in the assay with U251 CNS; 1.27 µM in the assay with SNB-75 CNS; 1.51 µM in the assay with IGROV1 ovarian; 1.64 µM in the assay with NCI-H522 lung; 1.81 µM in the assay with NCI/ADR-RES ovarian. The GI50 in the assay on OVCAR-5 ovarian is 1.65 µM; with A549 NSCLC, 1.79 µM. In addition, the TGI in the assay on OVCAR-8 ovarian is 3.57 µM; in the assay on U251 CNS, 2.66 µM; with SNB-75 CNS it was 2.56 µM; with IGROV1 ovarian it was 3.01 µM; with NCI-H522 lung, 3.43 µM; with NCI/ADR-RES ovarian, 3.65 µM. Also, the figures for the TGI in the assay with OVCAR-5 ovarian and with A549 NSCLC were 3.1 µM and 3.72 µM, respectively.

On to `CC(=O)N=S(NC(=O)c1ccc(C)cc1)C(Cl)(Cl)Cl` (stereo not given), for which the TGI is more than 100 µM with SK-OV-3 ovarian; 33.1 µM in the assay on OVCAR-8 ovarian; 59.3 µM with U251 CNS; more than 100 µM in the assay on SNB-19 CNS; more than 100 µM with SNB-75 CNS; 93.4 µM in the assay with IGROV1 ovarian. Besides, the TGI in the assay with NCI/ADR-RES ovarian was 49.1 µM; in the assay on OVCAR-5 ovarian it was more than 100 µM; in the assay on A549 NSCLC, more than 100 µM.

As for `C/C(=N\O)[C@H]1CC[C@@]2(C)[C@@H]3CC[C@H]4C(C)(C)/C(=N/O)CC[C@@]45CC35CC[C@]12C` (stereo not given in full), the GI50 is 6.18 µM with SK-OV-3 ovarian; 3.64 µM in the assay with OVCAR-8 ovarian; 3.51 µM in the assay on U251 CNS; 8.21 µM in the assay with SNB-19 CNS; 7.46 µM with SNB-75 CNS; 5.28 µM in the assay with IGROV1 ovarian. The GI50 in the assay with NCI-H522 lung was more than 16.7 µM; with NCI/ADR-RES ovarian it was 2.76 µM; in the assay with A549 NSCLC, 3.92 µM. The TGI in the assay on SK-OV-3 ovarian was more than 16.7 µM; in the assay with OVCAR-8 ovarian, 9.39 µM; with U251 CNS it was 6.81 µM; in the assay with SNB-19 CNS, more than 16.7 µM; in the assay with SNB-75 CNS, 14.8 µM; in the assay with IGROV1 ovarian, more than 16.7 µM. For the same compound, the figures for the TGI in the assay on NCI-H522 lung, with NCI/ADR-RES ovarian and in the assay on A549 NSCLC were more than 16.7 µM, 7.93 µM and 9.59 µM, respectively.

Consider `Cc1ccc(-c2cc(C(Cl)Cl)on2)cc1`, for which the GI50 is more than 100 µM in the assay with SK-OV-3 ovarian; more than 100 µM in the assay on OVCAR-8 ovarian; 55.1 µM in the assay with U251 CNS; more than 100 µM with SNB-19 CNS; more than 100 µM with IGROV1 ovarian; 48.5 µM in the assay on NCI-H522 lung. For the same compound, the GI50 is 44.9 µM in the assay on NCI/ADR-RES ovarian, more than 100 µM in the assay with OVCAR-5 ovarian and 65.6 µM with A549 NSCLC. In addition, the TGI in the assay with SK-OV-3 ovarian, in the assay with OVCAR-8 ovarian, in the assay with U251 CNS, with SNB-19 CNS, in the assay on IGROV1 ovarian and with NCI-H522 lung was more than 100 µM in each case. Moreover, the TGI with NCI/ADR-RES ovarian, in the assay with OVCAR-5 ovarian and in the assay with A549 NSCLC was more than 100 µM in each case.
